# Results from US10738041B2, “Ferroportin inhibitors” (Vifor (International) AG, priority 2015, dated 2020).
# Read-outs that look alike come from different tables or passages of the source.
# Legend:
# [1] = target: T1, human Fpn-GFP fusion (Homo sapiens, UniProt Q9NP59); test: Ferroportin Internalization and Degradation Assay (FACS); type: cell-based
# T1 construct: expressed in transfected cells; host or cells: HEK-293 cell line #354 (derivative of HEK-293 Tet-ON Advanced, Clontech)
# T1 sequence (Q9NP59 1-571): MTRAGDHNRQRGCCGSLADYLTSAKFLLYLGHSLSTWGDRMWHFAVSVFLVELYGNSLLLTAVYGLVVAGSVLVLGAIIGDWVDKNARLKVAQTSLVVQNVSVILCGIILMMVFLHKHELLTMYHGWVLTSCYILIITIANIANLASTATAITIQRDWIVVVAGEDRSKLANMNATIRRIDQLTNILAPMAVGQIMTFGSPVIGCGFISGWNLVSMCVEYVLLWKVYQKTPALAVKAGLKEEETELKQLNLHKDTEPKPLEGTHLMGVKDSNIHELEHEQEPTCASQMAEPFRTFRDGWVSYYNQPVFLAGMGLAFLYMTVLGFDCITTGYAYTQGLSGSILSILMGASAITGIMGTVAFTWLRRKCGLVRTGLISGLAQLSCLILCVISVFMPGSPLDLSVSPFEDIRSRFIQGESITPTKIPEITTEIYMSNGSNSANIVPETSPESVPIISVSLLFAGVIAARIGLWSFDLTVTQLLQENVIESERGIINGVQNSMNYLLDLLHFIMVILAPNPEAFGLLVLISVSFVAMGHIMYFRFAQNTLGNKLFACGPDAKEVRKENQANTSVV
# Description: Growing HEK-293 #354 cells in doxycycline containing media induced expression of human Fpn-GFP fusion protein on the cell surface. […] Small molecular weight Fpn inhibitor compounds were tested for dose-dependent effects on the Fpn-GFP mean fluorescence intensity (MFI) on HEK-293 cell line #354, as described below. HEK #354 cells were harvested from ca. 80% confluent cultures, seeded at 0.6×10^6 (cells/ml in DMEM/F12 GlutaMAX™ medium (Invitrogen, Cat. 31331-028) containing 10% FBS (Clontech, Cat. 631106), 1% Penicillin-Streptomycin (Invitrogen, Cat. 15140-122), 200 μg/ml Hygromycin B (Invitrogen, Cat. 10687-010), Blasticidin 5 μg/ml, (Invitrogen, Cat. R210-01), 4 μg/ml doxycycline (Clontech, Cat. 631311), 50 μl per well of 384 well plates (Greiner; Cat. 781091) and grown at 37° C. with 5% CQ. After overnight incubation, 10 μl/well of dilution series of the test compounds were added in quadruplicates and plates were further incubated overnight at 37° C. with 5% CO2. Cells were washed once with FACS buffer (PBS containing 1% FBS, 2 mM EDTA and 0.05% NaN3), harvested in FACS buffer with 0.5 μg/ml propidium iodide (Sigma, Cat. P4864) and analyzed in a flow cytometer (CANTO™ II, BD Biosciences) equipped with high throughput sampler. Live HEK #354 cells were gated as propidium iodide negative population and analyzed for expression of Fpn-GFP.
# [2] = target: T2, human Fpn (Homo sapiens, UniProt Q9NP59); test: Biophysical Ferroportin-Hepcidin Binding Assay (fluorescence polarization)
# T2 construct: FLAG (C); made in house; host or cells: Pichia pastoris
# T2 sequence (Q9NP59 1-571): T1 sequence (Q9NP59 1-571)
# In short: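 Purified human Fpn (C-terminal FLAG tag, expressed in Pichia pastoris) at 1 μM final was incubated with 20 nM TMR-hepcidin and serially diluted compounds in duplicate for 90 min at room temperature. Binding inhibition was read as a dose-dependent fall in FP (mP), calculated from parallel and perpendicular fluorescence.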
# [3] = system: naïve WT C57BL/6 mice; test: Hypoferremia in naïve mice; type: in vivo, mouse; conditions: for inhibition in vivo at 10 mg/kg / inhibition in vivo at 30 mg/kg / inhibition in vivo at 100 mg/kg: Mus musculus, po, 3 h, naïve WT C57BL/6 mice, relative to vehicle, read-out: Serum Iron Reduction at 3 h (%); for inhibition in vivo at 10 mg/kg: Dose 10 mg/kg p.o.; for inhibition in vivo at 30 mg/kg: Dose 30 mg/kg p.o.; for inhibition in vivo at 100 mg/kg: Dose 100 mg/kg p.o.
# Description: Female C57BL/6 mice (Janvier, France) at age of 9 weeks were fed a standard diet (Harlan Provimi Kliba 3436) and treated per os (p.o.) with compounds or the corresponding amount of vehicle at a volume of 10 ml/kg body weight. Fpn inhibitors were formulated in 0.5% methylcellulose/water or 20% cremophor EL/water and dosed p.o. in mice at 10, 30 or 100 mg/kg body weight. Three hours later, mice were pre terminally anesthetized in isoflurane chambers and blood was collected by retro-orbital bleeding. Mice were sacrificed by cervical dislocation and spleens, livers and duodena were harvested and used for biomarker analysis. All experiments have been conducted in compliance with the license approved by the responsible veterinarian authorities. Serum was isolated by centrifugation of blood into gel-containing microtainers and serum iron was determined by the MULTIGENT Iron assay (Abbott Diagnostics, 6K95). Eight mice per group were used and one-way ANOVA with Bonferroni's multiple comparison test was performed to analyze the statistical differences between the experimental groups.
# [4] = average of multiple measurements; Fpn-GFP MFI, HEK-293 cell line #354, FACS
# [5] = average of multiple measurements, 1 μM human Fpn, 20 nM TMR-hepcidin, read-out: FP IC50
# [6] = injection of synthetic hepcidin in WT naïve mice (Rivera, 2005; FIG. 3A)
# [7] = average of multiple measurements; Fpn-GFP MFI, HEK-293 cell line #354, FACS; read-out: EC50 ferroportin internalization and degradation
Compound,"EC50 [1, 4] [nM]","IC50 [2, 5] [nM]",also measured
O=C(NCc1ncccc1F)c1csc(CCCNCc2nc3ccccc3[nH]2)n1 [Example 134],5190,970,
"CC[C@H](C)[C@@H]1NC(=O)[C@@H](NC(=O)[C@@H](NC(=O)[C@@H]2CCCN2C(=O)[C@H](Cc2ccccc2)NC(=O)[C@H](Cc2c[nH]cn2)NC(=O)[C@@H](NC(=O)[C@@H](N)CC(=O)O)[C@@H](C)O)[C@@H](C)CC)CSSC[C@@H](C(=O)N[C@@H](CCCCN)C(=O)N[C@H](C(=O)O)[C@@H](C)O)NC(=O)[C@@H]2CSSC[C@@H]3NC(=O)[C@@H]4CSSC[C@H](NC(=O)[C@H](Cc5ccccc5)NC1=O)C(=O)N[C@@H](CSSC[C@H](NC(=O)[C@H](CCCCN)NC(=O)[C@H](CO)NC(=O)[C@H](CCCNC(=N)N)NC(=O)[C@H](Cc1c[nH]cn1)NC3=O)C(=O)NCC(=O)N[C@@H](CCSC)C(=O)N2)C(=O)NCC(=O)N4 [hepcidin, reference compound]",,,"DC50 ([1]; read-out: EC50 ferroportin internalization and degradation; average of multiple measurements; Fpn-GFP MFI, HEK-293 cell line #354, FACS): 4 ± 2 nM; reduction of serum iron levels from the vehicle control [3, 6]: 40-50%; time of maximal effect on serum iron post treatment [3, 6]: 3 to 4 h; IC50 [2]: 370 ± 67 nM"
O=C(NCc1ncccc1F)c1coc(C2CN(CCc3nc4ccccc4[nH]3)C2)n1 [Example 208],150,19,inhibition in vivo at 10 mg/kg [3]: 50%; inhibition in vivo at 30 mg/kg [3]: 65%; inhibition in vivo at 100 mg/kg [3]: 73%
O=C(NC1CCc2cccnc21)c1csc(CCNCCc2nc3ccccc3[nH]2)n1 (stereo not drawn) [Example 158],325,41,
O=C(NCc1ncccc1Cl)c1coc(CCNCc2nc3ccccc3[nH]2)n1 [Example 141],290,49,
O=C(NCc1ncccc1Cl)c1csc(CCNCc2nc3ccccc3[nH]2)n1 [Example 82],689,374,
O=C(NCc1ncccc1F)c1csc(CCNCCc2nc3c(F)cccc3[nH]2)n1 [Example 243],510,34,
O=C(NCc1ncccc1F)c1ncn(CCNCCc2nc3ccccc3[nH]2)n1 [Example 181],930,89,
O=C(NCc1ncccc1F)c1cnn(CCNCCc2nc3ccccc3[nH]2)c1 [Example 111],75,51,
O=C(NCc1ncccc1F)c1coc(CCNCCc2nc3cc(F)ccc3[nH]2)n1 [Example 250],600,19,inhibition in vivo at 10 mg/kg [3]: 5%; inhibition in vivo at 30 mg/kg [3]: 18%; inhibition in vivo at 100 mg/kg [3]: 40%
O=C(NC1CCc2cccnc21)c1csc(CCNCc2nc3ccccc3[nH]2)n1 (stereo not drawn) [Example 39],,1340,inhibition in vivo at 10 mg/kg [3]: 10%; inhibition in vivo at 30 mg/kg [3]: 20%; inhibition in vivo at 100 mg/kg [3]: 35%
O=C(NCc1ncccc1F)c1csc(CCNCCc2nc3cc(F)ccc3[nH]2)n1 [Example 120],530,71,
O=C(NCc1ncccc1F)c1cncc(C2CN(CCc3nc4ccccc4[nH]3)C2)c1 [compound 237],,66,inhibition in vivo at 10 mg/kg [3]: 0%; inhibition in vivo at 30 mg/kg [3]: 15%; inhibition in vivo at 100 mg/kg [3]: 27%
O=C(NCc1ncccc1F)c1cccc(CNCCc2nc3ccccc3[nH]2)c1 [Example 224],,201,"DC50 [1, 7]: 1830 nM"
O=C(NCc1ncccc1F)c1coc(CCNCCc2nc3c(Cl)cccc3[nH]2)n1 [Example 226],490,26,
O=C(NCc1cccnn1)c1nc(CCNCc2nc3ccccc3[nH]2)sc1Cl [Example 161],5300,260,
Cc1oc(CCNCCc2nc3ccccc3[nH]2)nc1C(=O)NCc1ncccc1F [Example 230],950,58,
Cc1cnccc1CNC(=O)c1csc(CCNCc2nc3ccccc3[nH]2)n1 [Example 90],,418,inhibition in vivo at 10 mg/kg [3]: 0%; inhibition in vivo at 30 mg/kg [3]: 0%; inhibition in vivo at 100 mg/kg [3]: 40%
O=C(NCc1ncccc1Cl)c1cnn(CCNCc2nc3ccccc3[nH]2)c1 [Example 138],678,160,
O=C(NCc1ncccc1F)c1csc(CCNCC(F)(F)c2nc3ccccc3[nH]2)n1 [Example 196],,870,"DC50 [1, 7]: 24800 nM"
O=C(NCc1ncccc1F)c1ncn(CCNCc2nc3ccccc3[nH]2)n1 [Example 169],4120,540,
O=C(NCc1ncccc1F)c1csc(CCN(CCc2nc3ccccc3[nH]2)CCc2nc3ccccc3[nH]2)n1 [Example 152],71,23,
O=C(NCc1ncccc1Cl)c1cnn(CCNCCc2nc3ccccc3[nH]2)c1 [Example 144],43,73,
O=C(NCc1ncc(F)cc1F)c1csc(CCNCCc2nc3ccccc3[nH]2)n1 [Example 116],590,58,
O=C(NCc1cccnn1)c1csc(CCNCCc2nc3ccccc3[nH]2)n1 [Example 122],3020,214,
O=C(NCc1ncccc1F)c1coc(CCNCCc2nc3c(F)cc(F)cc3[nH]2)n1 [Example 249],950,44,
O=C(NCc1ncccc1F)c1nc(CCNCc2nc3ccccc3[nH]2)sc1Cl [Example 151],523,89,
O=C(NCc1ccccn1)c1csc(CCNCc2nc3ccccc3[nH]2)n1 [Example 12],,860,inhibition in vivo at 10 mg/kg [3]: 15%; inhibition in vivo at 30 mg/kg [3]: 20%; inhibition in vivo at 100 mg/kg [3]: 45%
